Here are results for ten compounds from patent publication US5242937A, “Topically active ocular thiadiazole sulfonamide carbonic anhydrase inhibitors” (Research Corporation Technologies, Inc., priority 1990, dated 1993).

Data set [1] is described as follows: Corneal permeability rate constant (kin) across freshly excised bovine corneas in vitro; accession rate. Format: in vitro ADME. To be noted: for kin (corneal permeability rate constant): excised bovine corneas, in vitro. The protocol:
(§1) In these examples the general methodology for testing these compounds is as follows. Melting point (M.P.) is assessed using a standard Fisher-Johns apparatus. Quantitative analysis of drug concentrations is carried out using either an enzymatic assay or by high performance liquid chromatography (HPLC). The enzymatic assay is a modification of Maren's micromethod, J. Pharmacol. Exp. Ther., 130:26-29, 1960. Essentially, a reaction volume of 0.8 mL, containing a carbonate/bicarbonate buffer, phenol red, purified carbonic anhydrase, and inhibitor is maintained at 0° degrees and saturation with CO2 by constant bubbling. The time required for acidification to a color change endpoint is monitored as the dependent variable. Carbonic anhydrase inhibitors increase reaction time in proportion to their concentrations over a useful range. The HPLC analysis is performed using reverse phase chromatography (C18) and gradient elution. At a flow rate of 2mL/min, initial mobile phase composition is 95% A, 5% B, where A is 50 mM phosphate buffer, pH=2, and B is CH3 OH. This composition is altered in a linear fashion over 12 minutes to a final composition of 5:95, A:B, v:v. Capacity factor (k') is determined using the relationship k'=([…] -Vo)/Vo where Ve is the elution volume of the analyte of interest and Vo is the void volume of the column. HPLC analysis using photodiode array UV-visible detection (400-200 nm) is also used to assess purity and acquire spectral information.
(§2) Corneal permeability rate constants (kin) are determined in an in vitro system. Freshly excised bovine corneas are placed on 8 mm tissue culture wells (epithelial surface down) filled with tissue culture medium containing test compound. The well formed by the curvature of the cornea is filled with drug-free medium. Samples of medium are taken from the endothelial side for determination of drug concentrations. The rate constant for drug appearance is kin. Enzyme inhibition is assessed by determination of KI versus carbonic anhydrase II using the enzymatic method. Accession rate is the product of kin and maximum buffer solubility. This is a useful estimate of delivery rate of drug to the anterior chamber of the eye following topical administration.

Data set [2] in a line: Solubility in pH=7.4 phosphate buffer (saturated solutions). The following applies: aqueous buffer. Format: physicochemical. The protocol: as §1
Solubility is determined by preparing saturated solutions of test compounds in pH=7.4 phosphate buffer followed by analysis of the solution for compound concentration.

Another data set concerns the target carbonic anhydrase II (Homo sapiens, UniProt P00918). Nature of the data set: Enzyme inhibition, KI versus carbonic anhydrase II (enzymatic micromethod). It counts as biochemical. To be noted: 0°. As for the experimental part:
as §1, with “Carbonic anhydrase inhibitors increase reaction time in proportion to their concentrations over a useful range.” left out
as §2, with “solubility.” for “solubility. This is a useful estimate of delivery rate of drug to the anterior chamber of the eye following topical administration.”

Data set [3] deals with intraocular pressure (IOP). Nature of the data set: Ocular hypotensive effects following topical administration (Table 2). Format: in vivo, New Zealand white rabbits. The following applies: IOP lowering; for Maximum Topical Effect: one eye, contralateral eye vehicle. As for the experimental part:
B.2 Ocular Hypotensive Effects Following Topical Administration
IOP was determined using rabbits familiarized with the Alcon pneumotonometric measurement employed. Drugs were dissolved or suspended in 0.9% saline or a 1% hydroxypropylmethyl-cellulose gel and instilled into one eye. The contralateral eye received the vehicle only, thereby serving as a control. Initial screening was accomplished using measurements every 15-30 minutes for 5-6 hours. Statistical analysis wa then performed using Student's t-test for paired data (two-tailed).

For data set [4] the following is noted: oral administration; cited from earlier work.
The nature of data set [5]: Partition coefficients (PC), organic solvent : pH=7.4 phosphate buffer. It counts as physicochemical. To be noted: for PC (CHCl3 : buffer): chloroform : pH=7.4 phosphate buffer; for PC (ether: buffer): diethyl ether : pH=7.4 phosphate buffer. As for the experimental part:
as §1
Partition coefficients (PC) are determined by dissolving test compound in pH=7.4 phosphate buffer (saturated with the appropriate organic solvent) or organic solvent (diethyl ether or chloroform) saturated with buffer. Equal volumes of organic and aqueous solutions are added to test tubes which are then capped and mixed by inversion until equilibrium is achieved. The ratio of drug concentration organic: aqueous is the partition coefficient.

The subject of data set [6] is intraocular pressure (IOP). Nature of the data set: Ocular hypotensive effects following systemic administration (Table 1). Format: in vivo, New Zealand albino rabbits. To be noted: subcutaneous, 225 μmol in corn oil, mean (S.D.). The protocol: B.1 Ocular Hypotensive Effects Following systemic Administration
Compounds are dissolved in corn oil and injected subcutaneously into New Zealand albino rabbits. […] Injection time is defined as t=0. […] Values shown are IOP in mm Hg represented as the mean (S.D.) of n replications. Data are analyzed using Student's t-test for unpaired data. For time points marked with asterisks, p<0.05, which is taken to indicate a difference from vehicle treated controls.

For data set [7] the following is noted: topical CAI, IOP lowering; cited from earlier work.

By solubility is commonly meant the concentration that dissolves in the medium under given conditions. Higher therefore signals much dissolved substance. For orientation: Ki means the equilibrium dissociation constant of an inhibitor or competing ligand from its target. Read a high Ki as lower affinity.

The structures appear in SMILES notation. ≈ marks a conversion by molar mass, not a printed value. A value given as a limit tells only on which side of the number the result lay.

For `NS(=O)(=O)c1nnc(N2C(=O)C(O)C(O)C2=O)s1` (stereo not drawn) [Example 4, Dihydroxysuccinimidazolamide], in data set [1], the accession rate is at most 21 µM/h and the “kin (corneal permeability rate constant)” value amounted to 3e-05 h⁻¹. Also, the solubility in data set [2] is above 700 mM. The compound further registered a Ki at carbonic anhydrase II of 0.008 µM. Also, in data set [3], the Duration is at least 6 h, the “Time to Peak effect” value worked out at 60 min and the “Maximum Topical Effect” value was -4.0 ± 0.7 mm Hg.

For `CC(=O)Nc1nnc(S(N)(=O)=O)s1` [acetazolamide, 2-acetylamino-1,3,4-thiadiazole-5-sulfonamide], the “decrease of IOP” value in data set [4] is listed as “shown to decrease IOP following oral administration”.

In turn, `CCOC(=O)C(=O)Nc1nnc(S(N)(=O)=O)s1` [Example 5, Ethyloxaloylazolamide] displayed an accession rate in data set [1] of 309 µM/h. Besides, the solubility in data set [2] (unit nm [sic]) worked out at 91 mM (≈ 25500 µg/mL). The same compound came in with a Ki on carbonic anhydrase II of 0.032 µM. For the same compound, in data set [5], the “PC (CHCl3 : buffer)” value stood at 0.23. The “PC (ether: buffer)” value in data set [5] turned out to be 0.3. For the same compound, the Duration in data set [3] was at least 5 h. Also, the “Time to Peak effect” value in data set [3] was 75 min. In data set [3], the “Maximum Topical Effect” value is listed as -3.0 ± 0.7 mm Hg. For the same compound, the IOP is 18.4(1.9) mm Hg in data set [6] (t=0 min); 17.5(2.1) mm Hg in data set [6] (t=20 min); 15.0(2.6) mm Hg in data set [6] (t=45 min, * p<0.05 vs vehicle); 14.5(2.2) mm Hg in data set [6] (t=60 min, * p<0.05 vs vehicle); 14.6(5.1) mm Hg in data set [6] (t=75 min, * p<0.05 vs vehicle); 17.8(1.7) mm Hg in data set [6] (t=90 min, * p<0.05 vs vehicle). Further, the IOP is listed as 17.3(2.2) mm Hg in data set [6] (t=110 min, * p<0.05 vs vehicle) and 18.3(1.3) mm Hg in data set [6] (t=150 min, * p<0.05 vs vehicle).

Consider `Nc1ccc2nc(S(N)(=O)=O)sc2c1` [aminozolamide], for which the “effectiveness in clinical trial” value in data set [7] is “partially effective in clinical trial”.

Consider `CCOC(=O)CCCCC(=O)Nc1nnc(S(N)(=O)=O)s1` [Example 7], for which, in data set [1], the accession rate came out at 26 µM/h and the “kin (corneal permeability rate constant)” value came out at 0.0512 h⁻¹. This compound returned a solubility in data set [2] of 0.2 mM (≈ 67.3 µg/mL). On carbonic anhydrase II (unit inferred), this compound had a Ki of 0.06 µM. The “PC (CHCl3 : buffer)” value in data set [5] was found to be 3.03.

In turn, `NS(=O)(=O)c1nnc(NC(=O)CCCCC(=O)O)s1` [Example 8] had a solubility in data set [2] of 0.5 mM (≈ 154 µg/mL).

With `NS(=O)(=O)c1nnc(N2C(=O)CCC2=O)s1` [Example 2, Succinylimidazolamide], in data set [1], the accession rate turned out to be 21 µM/h and the “kin (corneal permeability rate constant)” value amounted to 0.0021 h⁻¹. The solubility in data set [2] was determined as 10 mM (≈ 2620 µg/mL). In addition, in data set [3], the Duration turned out to be 2 h, the “Time to Peak effect” value is recorded as 30 min and the “Maximum Topical Effect” value is -2.3 ± 1.7 mm Hg.

For the compound `CCOC(=O)CCCCC(=O)Nc1nnc(S(N)(=O)=O)s1` [Compound 8, ethyladipoylazolamide], in data set [3], the Duration turned out to be 2 h, the “Time to Peak effect” value was 30 min and the “Maximum Topical Effect” value is “approx. -1.0 mm Hg”.

Turning to `NS(=O)(=O)c1nnc(N2C(=O)C=CC2=O)s1` [Example 3, Maleimidiazolamide], in data set [1], the accession rate amounted to 10.8 µM/h and the “kin (corneal permeability rate constant)” value is 0.0108 h⁻¹. In addition, the solubility in data set [2] amounted to 1 mM (≈ 260 µg/mL). Also, the Ki at carbonic anhydrase II amounted to 0.012 µM. Further, in data set [3], the Duration is 3 h, the “Time to Peak effect” value stood at 60 min and the “Maximum Topical Effect” value is reported as -2.0 ± 0.5 mm Hg.

On to `CCOC(=O)CCC(=O)Nc1nnc(S(N)(=O)=O)s1` [Example 6, Ethylsuccinylazolamide], for which the accession rate in data set [1] is 91 µM/h. Also, the “kin (corneal permeability rate constant)” value in data set [1] was 0.0155 h⁻¹. In addition, the concentration in solution in data set [2] (solubility) was 5.8 mM (≈ 1790 µg/mL). Besides, in data set [5], the “PC (CHCl3 : buffer)” value is given as 1.24. Further, the “PC (ether: buffer)” value in data set [5] is listed as 0.35. Further, the IOP is recorded as 18.3(1.0) mm Hg in data set [6] (t=0 min); 17.5(2.0) mm Hg in data set [6] (t=20 min); 15.4(2.1) mm Hg in data set [6] (t=45 min, * p<0.05 vs vehicle); 13.7(1.6) mm Hg in data set [6] (t=60 min, * p<0.05 vs vehicle); 12.4(1.9) mm Hg in data set [6] (t=75 min, * p<0.05 vs vehicle); 15.1(2.0) mm Hg in data set [6] (t=90 min, * p<0.05 vs vehicle). Further, the IOP in data set [6] (t=110 min, * p<0.05 vs vehicle) is given as 15.0(1.8) mm Hg; in data set [6] (t=150 min, * p<0.05 vs vehicle), 16.6(1.6) mm Hg.
